The test system of the experiment is citrated blood. Nature of the experiment: Measurement of whole blood clotting time (Sonoclot, ACT ONSET value). Also on record: species or system human. Here is the method: In a cuvette (NON-ACTIVATED CLOTTING TEST KIT), 18 μL of physiological saline was placed, and 14.8 μL of Calcicol was added thereto, followed by further adding 342 μL of the citrated blood to the resulting mixture. The mixture was then subjected to measurement using a Sonoclot coagulation & Platelet Function Analyzer (IMI Corporation), and the obtained ACT ONSET value was regarded as the whole blood clotting time.

With `CC1CNc2c(cccc2S(=O)(=O)N[C@@H](CCCNC(=N)N)C(=O)N2CC[C@@H](C)C[C@@H]2C(=O)O)C1` (mixture of isomers) [argatroban, (2R,4R)-4-methyl-1-((2S)-2-{[(3RS)-3-methyl-1,2,3,4-tetrahydroquinolin-8-yl]sulfonyl}amino-5-guanidinopentanoyl)piperidine-2-carboxylic acid], the “whole blood clotting time” value was 531 s (2 μM argatroban solution instead of physiological saline), 746 s (10 μM argatroban solution instead of physiological saline) and 849 s (20 μM argatroban solution instead of physiological saline).

The record behind these values is patent publication US20140142613A1, “INSTRUMENT FOR CAPTURING FREE THROMBI” (Toray Industries, Inc., priority 2011, published 2014).
